The results in this text go back to patent publication US10407388B2, “Thiourea derivatives as activators of RORα and pharmaceutical composition containing same” (SEOUL NATIONAL UNIVERSITY R & DB FOUNDATION, priority 2011, dated 2019).

One test deals with AMPK. The experiment in a line: Phosphorylation of AMPK in liver of mice with high-fat diet-induced fatty liver, western blotting. It counts as in vivo. The following applies: oral, 10 mg/kg/day or 30 mg/kg/day for 2 days; liver tissue; FIG. 11b. Here is the method: (§1) 3 days after the diet was fed, the mice were fed the high-fat diet containing safflower oil while being orally administered JC1-40 and JC1-42, which had been diluted with 0.5% carboxymethyl cellulose, at a dose of 10 mg/kg/day or 30 mg/kg/day for 2 days. 5 days after the diet was fed, the mice were sacrificed to extract liver tissues therefrom, and the expression of proteins was analyzed by western blotting analysis. That is, after treatment, each liver tissue was homogenized in a lysis buffer containing 50 mM NaCl, 50 mM Tris pH 7.4, 5 mM EDTA, 1% NP-40, and a protease inhibitor, and then centrifuged to obtain a total cell lysate. 20 μg to 30 μg of proteins collected from the total cell lysate was subjected to 7% to 9% SDS-PAGE, and was transferred to a polyvinylidene difluoride membrane (Millipore, Bedford, Mass., USA). […] Immunoreactive proteins were detected with Amersham ECL western blotting detection reagents using an HRP-conjugated secondary antibody (Zymed Lab). Protein concentrations were quantified by BCA (Pierce) analysis, and the expression of α-tubulin was monitored as a control. […]
(In general: A western blot detects proteins with antibodies after separation by electrophoresis.)

Another test relates to FAS. The experiment in a line: Expression of FAS protein in liver of mice with high-fat diet-induced fatty liver, western blotting. It counts as in vivo. Particulars: oral, 10 mg/kg/day or 30 mg/kg/day for 2 days; liver tissue; FIG. 11b. Here is the method:
as §1

In another test the test system is A7r5. The experiment in a line: Proliferation of vascular smooth muscle cells, MTT. The following applies: 100 μM for 2 days, 4 days, or 6 days, FIG. 14. It counts as cell-based, rat. Here is the method:
A7r5, which is a rat smooth muscle cell line, was purchased from ATCC. A7r5 was cultured in 5% CO2 using a DMEM supplemented with 10% FBS, penicillin (100 U/ml), and streptomycin (100 μg/ml) prior to use in an experiment. A7r5 cells (2×10^3 cells/well) were seeded on a 96-well culture plate and cultured overnight. After culturing, the A7r5 cells were treated with each of the JC1-40 and JC1-42 compounds at a concentration of 100 μM for 2 days, 4 days, or 6 days. Subsequently, the A7r5 cells were treated with MTT (3-4,5-dimethylthiazol-2-yl)-2,5-diphenyl-tetrazolium bromide) (2 mg/ml, 50 μl) for 4 hours, and then the medium was removed and 200 μl of DMSO was added to the plate. The contents in the plate were mixed for 5 minutes, and then absorbance was measured at 595 nm. Data was attained as the mean and SD for the three independent experimental results, and the results thereof are illustrated in FIG. 14.

The subject of test [1] is mice with high-fat diet-induced fatty liver. The experiment in a line: Intrahepatic triglyceride, intrahepatic fat accumulation and body weight in mice with high-fat diet-induced fatty liver. It counts as in vivo. Particulars: oral, 10 mg/kg/day or 30 mg/kg/day for 2 days; for amount of intrahepatic triglyceride, which had been increased by the high-fat diet: FIG. 12a; for intrahepatic fat accumulation (Oil Red O staining): FIG. 12b; for body weights of the mice, which had been increased by the high-fat diet: FIG. 12c. Here is the method: 3 days after the diet was fed, the mice were fed the high-fat diet containing safflower oil while being orally administered JC1-40 and JC142, which had been diluted with 0.5% carboxymethyl cellulose, at a dose of 10 mg/kg/day or 30 mg/kg/day for 2 days. 5 days after the diet was fed, the mice were sacrificed to extract liver tissues therefrom, and the amounts of intrahepatic triglycerides were measured using an EnzyChrom™ triglyceride assay kit (BioAssay Systems).
In addition, Oil Red O staining, which enables the identification of intrahepatic fat accumulation, was performed on the extracted liver tissues of the mice.

For test [2], the system named is white mice, common carotid artery damaged by balloon catheter. The experiment in a line: Inner vascular proliferation after balloon dilatation. It counts as in vivo. Particulars: oral, 5 mg/kg, 14 days after balloon dilatation; H&E staining; FIG. 15. The protocol: To verify the inhibition of angiostenosis by JC1-40, white mice were administered JC1-40 for […], followed by balloon dilatation and subsequent additional administration of JC1-40 for 14 days. An experimental group was orally administered JC1-40 at a dose of 5 mg/kg (in 0.5% carboxymethyl cellulose, 2 ml/kg) (n=5), and a control was orally administered 0.5% carboxymethlycellulose at a dose of […] (n=5). The balloon dilatation was performed as follows. The cervical portion of each with mouse was incised to expose a common carotid artery, and the internal branch was tied at a site where the common carotid artery branches into the external branch and the internal branch. The external branch was partially incised, and then ballooning was performed three times with a 2F Fogarty balloon catheter to damage blood vessels. Subsequently, the balloon catheter was removed, and the incision site was tied. After balloon dilatation, the white mice were administered the drug for 14 days and then sacrificed to cut the site in artery that included the damaged region. The obtained blood vessels of each of the JC1-40 experimental group and the control were sectioned, the inner vascular layer thereof was subjected to Hematoxylin and Eosin (H&E) staining, and then the effect of JC1-40 on the inhibition of inner vascular proliferation was examined, and the results thereof are illustrated in FIG. 15. […]

For the next test, the system named is MCP-1. In words: MCP-1 in alcoholic fatty liver mice model (ELISA, western blotting). The following applies: oral, 10 mg/kg body weight once a day for 2 weeks, alcohol group. It counts as in vivo, mice (C57BL/6). The protocol:
(§2) Eight-week-old black male laboratory mice (C57BL/6) were divided into: 1) control (n=8); 2) JC1-40-administered control (n=8); 3) alcohol group (n=12); and 4) JC1-40-administered alcohol group (n=12), and fed a Lieber-DeCarli liquid diet (Dyets Inc, Bethlehem, Pa., USA). The Lieber-DeCarli liquid diet in the form of powder was purchased, and then water was added thereto every morning to form a liquid-type feed such that 1 ml of the feed contained 1 kcal. The alcohol group was fed a gradually increasing amount of alcohol with an increment of 0.5% during a 2-week adaptation period, and then was fed a feed containing 5% alcohol for 5 weeks. The feed of the control included maltose dextrin instead of alcohol, and for pair-feeding, the feed included maltose dextrin in an amount providing the same calories as the calories that the amount of the feed fed to the mice of the alcohol group contained. During the 5-week ingestion of 5% alcohol, JC1-40 diluted with 0.5% carboxymethyl cellulose was orally administered once a day at a dose of 10 mg/kg body weight for 2 weeks prior to sacrificing the mice. After the 5-week alcohol feeding period was completed, the mice were fasted for 12 hours, and anesthetized to incise the abdomen, and blood and liver were removed from each mouse.
Background: In an ELISA, binding on a coated surface is turned into a signal by an enzyme label.

The test system of another test is LXRα. The experiment in a line: Expression of LXRα protein in liver of mice with high-fat diet-induced fatty liver, western blotting. It counts as in vivo. The following applies: oral, 10 mg/kg/day or 30 mg/kg/day for 2 days; liver tissue; FIG. 11b. Here is the method:
as §1

The subject of test [3] is alcoholic fatty liver mice model. The experiment in a line: Alcoholic fatty liver mice model (Lieber-DeCarli liquid diet). It counts as in vivo, mice (C57BL/6). Particulars: oral, 10 mg/kg body weight once a day for 2 weeks. Here is the method: as §2

Consider `CNC(=S)NCc1ccc(OCc2ccccc2)cc1` [Compound 40, 1-(4-benzyloxy-benzyl)-3-methyl-thiourea], for which the “phosphorylation of AMPK” value in the test with AMPK was “increased”. Besides, in the test on FAS, the “expression of FAS protein, which had been increased by the high-fat diet” value is reported as “decreased”. Further, the “proliferation of vascular smooth muscle cells” value with A7r5 is listed as “decreased”. In addition, in test [1], the “amount of intrahepatic triglyceride, which had been increased by the high-fat diet” value is given as “decreased”; the “intrahepatic fat accumulation (Oil Red O staining)” value was “decreased”; the “body weights of the mice, which had been increased by the high-fat diet” value is “decreased”. Besides, in test [2], the “proliferation of the inner vascular layer by balloon dilatation” value is recorded as “inhibited”. The “level of cytokine MCP-1 (ELISA)” value in the test on MCP-1 (FIG. 16c) is listed as “significantly decreased”. For the same compound, the “expression of the MCP-1 protein (western blotting)” value with MCP-1 (FIG. 16e) was “decreased to the level of the control”. Also, in the test with LXRα, the “expression of LXRα protein, which had been increased by the high-fat diet” value is reported as “decreased”. In test [3] (alcohol group, FIG. 16a), the GOT in plasma entry is “decreases in GPT and GOT to levels of the control”; the GPT in plasma result was “decreases in GPT and GOT to levels of the control”. The “level of blood triglycerides” value in test [3] (alcohol group, FIG. 16b) is recorded as “significantly decreased”. Also, the “weight percentage of liver in body” value in test [3] (alcohol group, FIG. 16d) is given as “decreased with high significance”. In test [3] (liver tissue), the “accumulation of alcohol-induced lipid vesicles (Hematoxyllin & Eosin)” value is given as “significantly reduced”.
For `CNC(=S)NCc1ccc(Oc2ccccc2)cc1` [Compound 42, 1-(4-phenoxy-benzyl)-3-methyl-thiourea], the “phosphorylation of AMPK” value with AMPK was “increased”. Further, the “expression of FAS protein, which had been increased by the high-fat diet” value in the test on FAS was “decreased”. Further, the “proliferation of vascular smooth muscle cells” value in the test on A7r5 was “decreased”. For the same compound, in test [1], the “amount of intrahepatic triglyceride, which had been increased by the high-fat diet” value was “decreased”; the “intrahepatic fat accumulation (Oil Red O staining)” value was “decreased”; the “body weights of the mice, which had been increased by the high-fat diet” value is “decreased”. Also, the “expression of LXRα protein, which had been increased by the high-fat diet” value in the test with LXRα is listed as “decreased”.
